Experimental data as given in patent US6025343A, “Lipid esters of nucleoside monophosphates and their use as immunosuppressive drugs” (Roche Diagnostics GmbH, priority 1994, dated 2000).
Like-named read-outs stand apart in the source and are kept apart here.

Assays:
[1] = tested on: murine bone marrow stern cells, colony-forming units/erythrocytes (CFU-E); assay: CFU-E assay, in vitro cytotoxicity / bone marrow toxicity; format: cell-based; conditions: for IC50: Mus musculus, Erythrocyte
Method: (§1) The cytostatic/cytotoxic compound Doxorubicin was also included as reference substance. All compounds were tested in 3-6 different experiments concentration dependently with,at least, doublicate or triplicate inclubations per concentration tested.
(§2) For assay conditions, please refer to description of Example 7.

[2] = tested on: murine bone marrow stern cells, colony-forming units/granulocytes-macrophages (CFU-GM); assay: CFU-GM assay, in vitro cytotoxicity / bone marrow toxicity; format: cell-based; conditions: for IC50: Mus musculus, in vitro
Method: as §1, §2

L 1210 leukemia = assay: Influence on the L 1210 leukemia in vivo: survival time; set-up: species or system mice
Method: Mice were inoculated with L 1210 leukemia cells on day 0 (n=10 animals/group) and w ere then treated once daily i.p. from day 0 (+1 h)-day +41 (6 weeks) with the weekly cycles indicated on FIGS. 1 and 2, respectively.

[3] = in vitro, mean ± SEM, Example 7, read-out: IC50 CFU-E
[4] = CFU-GM, mean ± SEM, Example 7, read-out: IC50 CFU-GM
[5] = in vitro, mean, Example 10, read-out: Bone marrow toxicity CFU-E, mean IC50
[6] = CFU-GM, mean, Example 10, read-out: Bone marrow toxicity CFU-GM, mean IC50
[7] = 5-FU-DMDOPE compared to 5-FU, table

Compound	IC50 [1, 3] [ng/mL]	IC50 [2, 4] [ng/mL]	IC50 [1, 5] [nM]	IC50 [2, 6] [nM]	other results
Sc1ncnc2nc[nH]c12 [6-Mercaptopurine, reference compound]	0.3	2.3	–	–	–
O=c1[nH]c(=O)n([C@@H]2O[C@H](CO)[C@@H](O)[C@H]2O)cc1F [Example 5-FU, 5-Fluorouridine, reference compound]	–	–	0.61	4.96	dose-efficacy profile (L 1210 leukemia; i.p. once daily, weekly cycles, day 0 (+1 h)-day +41, FIG. 2): very narrow dose-efficacy profile; survival rates on increasing the dose (L 1210 leukemia; i.p., from 2×10/5×0.1 to 2×10/5×0.3 mg kg^-1 day^-1 or even higher doses, FIG. 2): reduced survival rates
CCCCCCCCCCCCSCC(COP(=O)(O)OC[C@H]1O[C@@H](n2cnc3c(S)ncnc32)[C@H](O)[C@@H]1O)OCCCCCCCCCC (stereo partly drawn) [Example 6-MPR-DMDOPE, (6-Mercaptopurine-9-β-D-ribofuranoside)-5'-phosphoric acid (3-dodecylmercapto-2-decyloxy) propyl ester]	56	247	–	–	tolerability by bone marrow stem cells ([1]; in vitro, CFU-E and CFU-GM, compared to Azathioprine, 6-MP, 6-Mercaptopurinriboside, Doxorubicin): much better tolerated by the bone marrow stern cells compared to all other compounds tested
OC[C@H]1O[C@@H](n2cnc3c(S)ncnc32)[C@H](O)[C@@H]1O [6-Mercaptopurinriboside, reference compound]	0.3	2.3	–	–	–
CCCCCCCCCCCCSCC(COP(=O)(O)OC[C@H]1O[C@@H](n2cc(F)c(=O)[nH]c2=O)[C@H](O)[C@@H]1O)OCCCCCCCCCC (some centres unmarked) [Example 5-FU-DMDOPE, (5-Fluorouridine) -5'-phosphoric acid (3-dodecylmercapto 2 decyloxy) propyl ester]	–	–	372	1180	Bone marrow toxicity CFU-E, ratio to 5-FU [1, 7]: 610 ×; less toxic on erythrocyte bone marrow stem cells compared to 5-FU ([1]; CFU-E): 610 times; toxicity on bone marrow cells compared to 5-FU ([1]; in words, CFU-E and CFU-GM): much less toxic on bone marrow cells; therapeutic index/ratio compared to 5-FU (L 1210 leukemia; concluded from efficacy (FIGS. 1 and 2) and bone marrow toxicity): much higher therapeutic index/ratio; survival time compared to control I and II (L 1210 leukemia; i.p. once daily, weekly cycles, day 0 (+1 h)-day +41, FIG. 1): clear dose-dependent increase in survival time; efficacy compared to 5-FU (L 1210 leukemia; leukemia model, equimolar doses, FIGS. 1 and 2): clearly more effective; Bone marrow toxicity CFU-GM, ratio to 5-FU [2, 7]: 238 ×; less toxic on granulocyte/macrophage bone marrow stem cells compared to 5-FU ([2]; CFU-GM): 238 times
COc1cccc2c1C(=O)c1c(O)c3c(c(O)c1C2=O)C[C@@](O)(C(=O)CO)C[C@@H]3O[C@H]1C[C@H](N)[C@H](O)[C@H](C)O1 [Doxorubicin, reference compound]	1.7	50	–	–	–
